{
  "source": "paper PMC7044277",
  "about": "(Nature Communications, 2020)",
  "key": {"5HT4": {"target": "T1, 5HT4 (Homo sapiens, UniProt Q13639)", "T1 construct": "expressed in transfected cells; host or cells: HTLA cells expressing TEV-fused β-arrestin2", "T1 sequence (Q13639 whole entry, the tested form may be a part)": "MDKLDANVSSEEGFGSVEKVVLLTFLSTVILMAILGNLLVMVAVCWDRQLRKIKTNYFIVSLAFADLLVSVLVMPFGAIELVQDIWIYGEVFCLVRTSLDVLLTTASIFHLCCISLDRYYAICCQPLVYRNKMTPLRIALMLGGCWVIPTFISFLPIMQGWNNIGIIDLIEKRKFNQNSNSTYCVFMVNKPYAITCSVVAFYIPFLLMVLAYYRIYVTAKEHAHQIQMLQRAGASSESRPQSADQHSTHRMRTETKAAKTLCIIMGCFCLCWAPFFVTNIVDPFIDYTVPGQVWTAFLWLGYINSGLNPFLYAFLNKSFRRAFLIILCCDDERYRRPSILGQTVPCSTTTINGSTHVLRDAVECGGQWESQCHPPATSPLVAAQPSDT", "experiment": "β-arrestin2 recruitment (Tango)", "format": "cell-based", "conditions": "Fig_S10n, drug alone"}, "[1]": {"system": "serotonin receptor (subtype not given; reference agonist serotonin)", "experiment": "β-arrestin2 recruitment (Tango), agonist activity, source data Fig_S10l", "format": "cell-based, human", "conditions": "drug alone"}},
  "note": "“And” between values parts separate entries of the source, which are not always exact repeats. Equal values may be shown once.",
  "data": [
    {"smiles": "NCCc1c[nH]c2ccc(O)cc12", "note": "[serotonin]", "values": [
      {"measurement": "β-arrestin2 recruitment response (dose-response source data, replicate values)", "setting": "5HT4; Log[Drug] -6.52", "result": "4.364 and 3.213 and 1.27 and 4.689 and 5.849 and 4.639 and 0.7041 and 1.028 and 0.8286"},
      {"measurement": "β-arrestin2 recruitment response (dose-response source data, replicate values)", "setting": "5HT4; Log[Drug] -7", "result": "0.4502 and 1.04 and 0.7749 and 1.703 and 3.757 and 0.2045 and 0.7898"},
      {"measurement": "β-arrestin2 recruitment response (dose-response source data, replicate values)", "setting": "5HT4; Log[Drug] -7.52", "result": "0.2639 and 1.123 and 0.6731 and 1.44 and 0.8323 and -0.173 and -0.1455 and 0.1779"},
      {"measurement": "β-arrestin2 recruitment response (dose-response source data, replicate values)", "setting": "5HT4; Log[Drug] -8", "result": "0.909 and 1.368 and 1.768 and 1.945 and 1.002 and 4.528 and -0.04204 and 0.2773 and -0.04931"},
      {"measurement": "β-arrestin2 recruitment response (dose-response source data, replicate values)", "setting": "5HT4; Log[Drug] -8.52", "result": "1.014 and 0.4607 and 1.27 and 2.026 and 2.149 and 0.7135 and 0.536"},
      {"measurement": "β-arrestin2 recruitment response (dose-response source data, replicate values)", "setting": "5HT4; Log[Drug] -9", "result": "4.112 and 0.5135 and 0.7781 and 0.7219 and 2.151 and -0.2021 and -0.04689 and 0.1787"},
      {"measurement": "β-arrestin2 recruitment response (dose-response source data, replicate values)", "setting": "5HT4; Log[Drug] -9.52", "result": "-0.1745 and 0.2987 and 0.5551 and 1.654 and 2.192 and 1.098 and -0.3371 and 0.1099"},
      {"measurement": "β-arrestin2 recruitment response (dose-response source data, replicate values)", "setting": "5HT4; Log[Drug] -10", "result": "0.07451 and 0.7799 and 1.035 and 0.7688 and 1.653 and 0.865 and -0.1787 and 0.1471"},
      {"measurement": "β-arrestin2 recruitment response (dose-response source data, replicate values)", "setting": "5HT4; Log[Drug] -10.52", "result": "-0.001242 and 0.2372 and 0.7047 and -0.005208 and 0.949 and 0.8156 and -0.3363 and -0.2741"},
      {"measurement": "β-arrestin2 recruitment response (dose-response source data, replicate values)", "setting": "5HT4; Log[Drug] -11", "result": "0.09934 and 0.2831 and 0.9059 and 0.201 and 0.5729 and -0.1083 and 0.6362 and -0.2773"},
      {"measurement": "β-arrestin2 recruitment response (dose-response source data, replicate values)", "setting": "5HT4; Log[Drug] -11.52", "result": "-0.1788 and 1.011 and 0.1838 and 2.165 and 0.3594 and 0.526 and -0.2336 and -0.308 and 0.3767"},
      {"measurement": "β-arrestin2 recruitment response (dose-response source data, replicate values)", "setting": "5HT4; Log[Drug] -12", "result": "0.2813 and -0.1521 and 0.7458 and 0.6208 and 0.6615 and -0.1358 and -0.3662"},
      {"measurement": "response, Fig_S10l, replicate values", "setting": "[1]; Log[Drug] -6.52", "result": "89.1482 and 68.7936 and 58.4442"},
      {"measurement": "response, Fig_S10l, replicate values", "setting": "[1]; Log[Drug] -7", "result": "66.8775 and 42.3868 and 35.3098 and 60.5263 and 52.6042 and 58.638 and 24.4765 and 22.6408 and 30.0813"},
      {"measurement": "response, Fig_S10l, replicate values", "setting": "[1]; Log[Drug] -7.52", "result": "68.5906 and 51.7176 and 27.5973 and 17.0437 and 36.727 and -5.864 and 8.121 and 12.6341 and 15.0506"},
      {"measurement": "response, Fig_S10l, replicate values", "setting": "[1]; Log[Drug] -8", "result": "24.3997 and 25.1743 and 11.0247 and 13.4188 and 3.861 and -8.27 and 5.486 and 9.516 and -0.3454"},
      {"measurement": "response, Fig_S10l, replicate values", "setting": "[1]; Log[Drug] -8.52", "result": "28.2691 and 10.8991 and 0.6654 and 20.8515 and 4.218 and 3.753 and -2.601 and -10.3369 and 7.58"},
      {"measurement": "response, Fig_S10l, replicate values", "setting": "[1]; Log[Drug] -9", "result": "8.291 and 7.398 and -4.407 and 28.3765 and 10.5666 and -13.7434 and -1.811 and 21.0925 and -2.254"},
      {"measurement": "response, Fig_S10l, replicate values", "setting": "[1]; Log[Drug] -9.52", "result": "15.1454 and -8.903 and -7.678 and 11.6014 and -2.921 and -5.371 and 3.959 and 0.2537 and -8.706"},
      {"measurement": "response, Fig_S10l, replicate values", "setting": "[1]; Log[Drug] -10", "result": "10.6015 and 17.2844 and 5.47 and 9.7774 and -6.372 and -8.832 and 0.1972 and 15.6666 and 6.603"},
      {"measurement": "response, Fig_S10l, replicate values", "setting": "[1]; Log[Drug] -10.52", "result": "14.0658 and 3.099 and 4.084 and 6.9236 and -15.9908 and -3.571 and 14.7648 and -9.016 and -4.897"},
      {"measurement": "response, Fig_S10l, replicate values", "setting": "[1]; Log[Drug] -11", "result": "11.925 and 9.507 and -4.609 and 40.988 and 1.279 and -23.0265 and -4.413 and 0.5655 and 2.993"},
      {"measurement": "response, Fig_S10l, replicate values", "setting": "[1]; Log[Drug] -11.52", "result": "29.1466 and 5.5415 and 2.1791 and 13.0085 and 1.916 and 6.51 and 8.732 and 12.6601"},
      {"measurement": "response, Fig_S10l, replicate values", "setting": "[1]; Log[Drug] -12", "result": "12.8871 and 8.151 and 29.2053 and 0.5174 and 13.376 and 13.9134 and 1.483 and -15.396"}
    ]}
  ]
}
